Holding throughout (format): functional, organism-based
In assay [1] the test system is Mus musculus. As to the kind of experiment: Hepatoprotective activity in CCL4-induced FVB mouse assessed as decrease in iNOS expression at 2.5 to 10 mg/kg, sc administered for 3 consecutive days prior CCL4 challenge measured 12 to 24 hrs post challenge by Western blot method relative to control.
For assay [2], the system named is Mus musculus. Put plainly: Hepatoprotective activity in CCL4-induced FVB mouse assessed as decrease in liver macrophages at 2.5 to 10 mg/kg, sc administered for 3 consecutive days prior CCL4 challenge measured 24 hrs post challenge by immunofluorescence staining method relative to control.
Assay [3] relates to Mus musculus. As to the kind of experiment: Hepatoprotective activity in CCL4-induced FVB mouse assessed as reduction in liver necrosis at 2.5 to 10 mg/kg, sc administered for 3 consecutive days prior CCL4 challenge measured 12 to 24 hrs post challenge by hematoxylin/eosin-staining method relative to control.
The subject of assay [4] is Mus musculus. Put plainly: Hepatoprotective activity in FVB mouse assessed as reduction of CCL4-induced increase of serum AST level at 2.5 to 10 mg/kg, sc administered for 3 consecutive days prior CCL4 challenge measured 12 to 24 hrs post challenge.
Assay [5] concerns Mus musculus. Put plainly: Hepatoprotective activity in CCL4-induced FVB mouse assessed as decrease in COX2 expression at 2.5 to 10 mg/kg, sc administered for 3 consecutive days prior CCL4 challenge measured 12 to 24 hrs post challenge by Western blot method relative to control.
Assay [6] has as its system Mus musculus. As to the kind of experiment: Hepatoprotective activity in CCL4-induced FVB mouse assessed as effect on CYP2E1 expression at 2.5 to 10 mg/kg, sc administered for 3 consecutive days prior CCL4 challenge measured 12 to 24 hrs post challenge by Western blot method relative to control.
The test system of assay [7] is Mus musculus. Put plainly: Hepatoprotective activity in CCL4-induced FVB mouse assessed as reduction in serum MDA level at 2.5 to 10 mg/kg, sc administered for 3 consecutive days prior CCL4 challenge measured 12 to 24 hrs post challenge relative to control.
Assay [8] deals with Mus musculus. Put plainly: Hepatoprotective activity in CCL4-induced FVB mouse assessed as restoration of Cu/Zn SOD expression at 2.5 to 10 mg/kg, sc administered for 3 consecutive days prior CCL4 challenge measured 12 to 24 hrs post challenge by Western blot method relative to control.
Assay [9] concerns Mus musculus. Put plainly: Hepatoprotective activity in CCL4-induced FVB mouse assessed as increase in CYP2E1 p-nitrophenol activity at 2.5 to 10 mg/kg, sc administered for 3 consecutive days prior CCL4 challenge measured 12 to 24 hrs post challenge relative to control.
For assay [10], the system named is Mus musculus. Put plainly: Hepatoprotective activity in FVB mouse assessed as reduction of CCL4-induced increase of serum ALT level at 2.5 to 10 mg/kg, sc administered for 3 consecutive days prior CCL4 challenge measured 12 to 24 hrs post challenge.
Assay [11] concerns Mus musculus. As to the kind of experiment: Hepatoprotective activity in sc dosed CCL4-induced FVB mouse assessed as reduction in liver necrosis at administered for 3 consecutive days prior CCL4 challenge measured 24 hrs post challenge by hematoxylin/eosin-staining method relative to control.
The test system of assay [12] is Mus musculus. Put plainly: Hepatoprotective activity in CCL4-induced FVB mouse assessed as increase in HO-1 expression at 2.5 to 10 mg/kg, sc administered for 3 consecutive days prior CCL4 challenge measured 12 to 24 hrs post challenge by Western blot method relative to control.
The test system of assay [13] is Mus musculus. As to the kind of experiment: Hepatoprotective activity in CCL4-induced FVB mouse assessed as reduction in liver necrosis at 10 mg/kg, sc administered for 3 consecutive days prior CCL4 challenge measured 12 hrs post challenge by hematoxylin/eosin-staining method relative to control. Set-up: dose 10 mg/kg.
The subject of assay [14] is Mus musculus. As to the kind of experiment: Hepatoprotective activity in CCL4-induced FVB mouse assessed as decrease in cleaved caspase3-positive hepatocytes at 2.5 to 10 mg/kg, sc administered for 3 consecutive days prior CCL4 challenge measured 24 hrs post challenge by immunofluorescence staining method relative to control. The note with it: Hepatocyte.
For assay [15], the system named is Mus musculus. Put plainly: Hepatoprotective activity in CCL4-induced FVB mouse assessed as reduction in ROS level at 10 mg/kg, sc administered for 3 consecutive days prior CCL4 challenge measured 12 to 24 hrs post challenge by DHE-labeling method relative to control. Set-up: dose 10 mg/kg.
The subject of assay [16] is Mus musculus. Put plainly: Hepatoprotective activity in CCL4-induced FVB mouse assessed as decrease in serum TNFalpha level at 2.5 to 10 mg/kg, sc administered for 3 consecutive days prior CCL4 challenge measured 12 to 24 hrs post challenge by ELISA relative to control.

One molecule from ChEMBL document CHEMBL2176983, “Hispidin analogue davallialactone attenuates carbon tetrachloride-induced hepatotoxicity in mice” (J Nat Prod, 2012) can be followed below.

Active and inactive are the calls of the source. The rule behind the calls is not given here.

As for `CC1=CC(=O)[C@H](c2c(O)cc(/C=C/c3ccc(O)c(O)c3)oc2=O)[C@@H](c2ccc(O)c(O)c2)O1`, the outcome in the assay with Mus musculus [1], in the assay on Mus musculus [2], with Mus musculus [3], with Mus musculus [4], in the assay on Mus musculus [5] and in the assay on Mus musculus [7] was Active. For the same molecule, the outcome with Mus musculus [8], in the assay with Mus musculus [9], in the assay with Mus musculus [10], with Mus musculus [12], in the assay with Mus musculus [13] and in the assay with Mus musculus [14] was Active. Besides, the result in the assay on Mus musculus [15] and in the assay on Mus musculus [16] was Active. Further, in the assay with Mus musculus [6], the result was inactive. In the assay on Mus musculus [11], the Activity entry was “Dose-dependent effect”.
